Publication PMC4912077 (PLoS ONE, 2016)
Like-named read-outs stand apart in the source and are kept apart here.

What was measured:
DAT [1] = target: T1, DAT (Homo sapiens, UniProt Q01959); assay: Monoamine reuptake inhibition assay, DAT in HEK293 cells; assay type: cell-based; design: expressed in transfected cells; host or cells: HEK293; settings: for Hill slope DAT reuptake inhibition: HEK293 cells
Experimental: (§1) Monoamine reuptake inhibition assays were performed via the NIMH PDSP as previously described.[28] In brief, the neurotransmitter transporter uptake assay kit (R8174) (Molecular Devices) was used. Human monoamine transporters (DAT, NET and SERT) were stably expressed in HEK293 cells. Assay buffer consisted of 20 mM HEPES, 1x HBSS at pH 7.4. Cells were plated in Pol-L-Lys (PLL) coated 384-well black clear bottom cell culture plates with a density of 15,000 cells/well. Cells were incubated for at least 6 h prior to assay. Media was removed and replaced with 20 μL assay buffer and 5 μL of drug or positive control (cocaine or nisoxetine) as a 5X stock. Cells were incubated for 30 min at 37°C. 25 μL of dye solution was then added and following an additional 30 min incubation (at 37°C) fluorescence intensity was measured using a FlexStation II (bottom read mode, excitation wavelength = […], emission = 520 nM with a cutoff of 510 nM). […] Additional details are available in the NIMH PDSP assay protocol book.

Alpha2C = target: T2, Alpha2C (Homo sapiens, UniProt P18825); assay: NIMH PDSP radioligand binding, Alpha2C
T2 sequence (P18825 1-462): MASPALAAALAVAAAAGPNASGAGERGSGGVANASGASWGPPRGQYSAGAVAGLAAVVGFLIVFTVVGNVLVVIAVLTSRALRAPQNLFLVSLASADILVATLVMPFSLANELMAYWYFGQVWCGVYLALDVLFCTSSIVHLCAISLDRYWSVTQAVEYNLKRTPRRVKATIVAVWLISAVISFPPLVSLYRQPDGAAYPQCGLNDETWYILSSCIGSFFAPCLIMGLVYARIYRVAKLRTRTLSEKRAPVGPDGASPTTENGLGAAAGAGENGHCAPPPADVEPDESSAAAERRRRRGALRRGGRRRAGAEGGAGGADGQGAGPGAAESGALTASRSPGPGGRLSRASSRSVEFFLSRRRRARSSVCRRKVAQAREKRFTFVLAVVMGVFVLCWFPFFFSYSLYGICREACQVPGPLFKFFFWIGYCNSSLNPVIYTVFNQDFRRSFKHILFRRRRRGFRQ
Experimental: (§2) Radioligands and concentrations used for additional 45 CNS receptor binding assays are listed as supporting information (S1 Table). This work was performed by the National Institute of Mental Health Psychoactive Drug Screening Program (NIMH PDSP) as described previously.[26] Briefly target compounds were dissolved in DMSO and subjected to a primary screen at 10,000 nM concentration. […] Additional experimental details are available in the NIMH PDSP assay protocol book.

Alpha2A = Alpha2A (Homo sapiens, UniProt P08913); assay: NIMH PDSP radioligand binding, Alpha2A
Experimental: as §2

NMDAR [2] = tested on: NMDAR; design: method as in earlier work; settings: [3H]-TCP; cited from earlier work
KOR = KOR (Homo sapiens, UniProt P41145); assay: NIMH PDSP radioligand binding, KOR
Experimental: as §2

[3] = target: PCP site within the NMDAR channel; assay: NMDAR binding, [3H]-MK-801 displacement in rat forebrain homogenate; settings: for Ki: read-out: Ki ± SEM, [3H]-(+)-MK-801, rat forebrain, Cheng-Prusoff;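 as to all read-outs here: IC50 by nonlinear regression of percent specific binding versus log concentration, Ki from IC50 via Cheng-Prusoff, raw counts in CPM, duplicates repeated at least three times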
Experimental: (§3) The reaction was terminated by vacuum filtration using a 24 well cell harvester (Brandel, Gaithersburg, MD) over presoaked GF/B glass fiber filters (Brandel, Gaithersburg, MD). Filters were washed with room temperature assay buffer (3 x 5 mL). […] IC50 values were determined in Graphpad Prism 5.0 using non-linear regression with log-concentration plotted against percent specific binding. […] Ki values were calculated using the equation of Cheng and Prusoff [24]. […] Protein concentration was determined via the Bradford method using Coomassie protein assay reagent (Sigma, USA) [25] with rat albumin (Sigma, USA) as standard. Experiments were performed in duplicate and repeated a minimum of three times.

Sigma 2 = target: T3, Sigma 2 (Rattus norvegicus, UniProt Q5U3Y7); assay: NIMH PDSP radioligand binding, Sigma 2
T3 sequence (Q5U3Y7 1-176): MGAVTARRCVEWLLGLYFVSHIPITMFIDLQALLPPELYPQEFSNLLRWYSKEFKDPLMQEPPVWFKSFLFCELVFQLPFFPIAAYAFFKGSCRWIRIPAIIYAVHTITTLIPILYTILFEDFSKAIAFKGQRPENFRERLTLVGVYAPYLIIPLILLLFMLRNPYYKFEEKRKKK
Experimental: as §2

M5 = M5 (Homo sapiens, UniProt P08912); assay: NIMH PDSP radioligand binding, M5
MOR = MOR (Homo sapiens, UniProt P35372); assay: NIMH PDSP radioligand binding, MOR
Experimental: as §2

M2 = M2 (Homo sapiens, UniProt P08172); assay: NIMH PDSP radioligand binding, M2
Human SERT = target: T4, Human SERT (Homo sapiens, UniProt P31645); assay: Monoamine reuptake inhibition assay, SERT in HEK293 cells; assay type: cell-based
T4 construct: expressed in transfected cells; host or cells: HEK293
Experimental: as §1

[4] = tested on: PCP site within the NMDAR channel
Experimental: as §3

M4 = M4 (Homo sapiens, UniProt P08173); assay: NIMH PDSP radioligand binding, M4
M3 = M3 (Homo sapiens, UniProt P20309); assay: NIMH PDSP radioligand binding, M3
DAT [5] = target: T1, DAT; assay: NIMH PDSP radioligand binding, DAT
Experimental: as §2

M1 = M1 (Homo sapiens, UniProt P11229); assay: NIMH PDSP radioligand binding, M1
NET [6] = target: T5, NET (Homo sapiens, UniProt P23975); assay: Monoamine reuptake inhibition assay, NET in HEK293 cells; assay type: cell-based; design: expressed in transfected cells; host or cells: HEK293; settings: for Hill slope NET reuptake inhibition: HEK293 cells
Experimental: as §1

H1 = H1 (Homo sapiens, UniProt P35367); assay: NIMH PDSP radioligand binding, H1
Experimental: as §2

H3 = H3 (Homo sapiens, UniProt Q9Y5N1); assay: NIMH PDSP radioligand binding, H3
Experimental: as §2

NET [7] = target: T5, NET; assay: NIMH PDSP radioligand binding, NET
Experimental: as §2

NMDAR [8] = settings: [3H]-MK-801, rat cortex and hippocampus membranes; read-out: NMDAR affinity; cited from earlier work
NMDA receptor = assay: NMDA receptor-mediated fEPSP (NMDAR-fEPSP) in CA1 of hippocampal slices; assay type: cell-based, rat; settings: 10 μM
Experimental: Male Wistar rats (Crl:Wi; Charles River, UK) aged 9–10 wk were sacrificed by neck vertebral dislocation (schedule 1 method) according to the United Kingdom (Scientific Procedures) Act of 1986. […] The brain was cut parasagittally into 400 μm sections and hippocampal slices were removed, stored and placed in a submerged recording chamber at 28–30°C. Recordings of synaptic activity were made, analyzed and presented as described. A bipolar electrode was used to deliver stimuli (0.03 Hz) to the Schaffer collateral pathway to enable recording of field excitatory synaptic potentials (fEPSPs) using a glass microelectrode positioned in the stratum radiatum of area CA1. […] After 30 min of stable control responses, 1 and 10 μM solutions of the individual compounds were added to the perfusate for 3–12 h while recording the amplitude and area of the NMDAR-fEPSP on-line using WinLTP [31]. Single exponential curves were fitted to the graphs and curves extrapolated to show likely half-times and minimum plateau responses achieved with each concentration of the compounds. Raw data for all fEPSP experiments are provided as supporting information (S2, S3 and S4 Files).

Sprague–Dawley rats [9] = assay: Pre-pulse inhibition (PPI) of acoustic startle in rats; assay type: in vivo, rat; settings: higher potency
Experimental: Male Sprague–Dawley rats from Harlan Industries (Indianapolis, IN, USA; initial weight 250–275 g) were housed in pairs under a 12-h reverse light/dark cycle (lights off at 0700 h). Use of a reversed light/dark cycle allows behavioral testing to be conducted during the awake phase of the light/dark cycle. Food and water were available ad libitum. Animals were acclimatized for approximately 1 wk after arrival prior to behavioral testing and maintained in Association for Assessment and Accreditation of Laboratory Animal Care (AAALAC)-approved facilities that meet all federal and state guidelines. Procedures were approved by the University of California San Diego institutional animal care and use committee. Principles of laboratory animal care were followed.
DPH hydrochloride and 2-MXP hydrochloride were dissolved in water containing 5% Tween-80 and administered subcutaneously, 10-min prior to the start of the startle test session. The injection volume was 1 ml/kg.
Eight startle chambers (SR-LAB system, San Diego Instruments, San Diego, CA, USA) were used to measure startle reactivity in rats. The startle test chambers were sound-attenuated, lighted, and ventilated enclosures containing a clear nonrestrictive cylindrical Plexiglas stabilimeter, 8.2 cm in diameter. A high-frequency loudspeaker mounted 24 cm above the Plexiglas cylinder produced all acoustic stimuli. The peak and average amplitudes of the startle response were detected by a piezoelectric accelerometer. At the onset of the startling stimulus, 100 1-ms readings were recorded, and the average amplitude was used to determine the magnitude of the startle response (measured in arbitrary units).
Acoustic startle test sessions consisted of startle trials (pulse-alone) and prepulse trials (prepulse + pulse). The pulse-alone trial consisted of a 40-ms 120-dB pulse of broadband white noise. Prepulse + pulse trials consisted of a 20-ms acoustic prepulse, an 80-ms delay, and then a 40-ms 120-dB startle pulse (100-ms onset–onset). There was an average of 15 s (range = 6–22 s) between trials. During each inter-trial interval, the movements of the animals were recorded once to measure response when no stimulus was present (data not shown). Each startle session began with a 5 min acclimation period to a 65-dB broadband noise that was present continuously throughout the session. One week after arrival, animals were tested in a brief baseline startle/PPI session to create treatment groups matched for levels of startle and PPI. The startle test session contained 12 pulse-alone trials and 36 prepulse + pulse trials (12 prepulses each of 68-, 71-, and 77-dB [equivalent to 3-, 6-, and 12-dB above background]) presented in a pseudo-randomized order. Six pulse-alone trials were presented at the beginning and the end of the test session but were not used in the calculation of PPI values. Raw data for all PPI experiments are provided as supporting information (S5 File).
The amount of PPI was calculated as a percentage score for each prepulse + pulse trial type: %PPI = 100−{[(startle response for prepulse + pulse trial)/(startle response for pulse-alone trial)] × 100}. Startle magnitude was calculated as the average response to all of the pulse-alone trials. PPI data were analyzed with two-factor analysis of variance (ANOVA) with treatment as the between-subjects factor and trial type (prepulse intensity) as a repeated measure. For experiments in which there was no significant interaction between drug and prepulse intensity, PPI data were collapsed across prepulse intensity and average PPI was used as the main dependent measure. ED50 values were calculated using nonlinear regression. Startle magnitude data were analyzed with one-factor ANOVA. Post-hoc analyses were performed using Tukey’s studentized range method. The alpha level was set at 0.05.

[10] = tested on: PCP site within the NMDAR channel; settings: [3H]-(+)-MK-801, rat forebrain, cited from earlier work
Sprague–Dawley rats [11] = settings: rat; cited from earlier work

T1 sequence (Q01959 whole entry): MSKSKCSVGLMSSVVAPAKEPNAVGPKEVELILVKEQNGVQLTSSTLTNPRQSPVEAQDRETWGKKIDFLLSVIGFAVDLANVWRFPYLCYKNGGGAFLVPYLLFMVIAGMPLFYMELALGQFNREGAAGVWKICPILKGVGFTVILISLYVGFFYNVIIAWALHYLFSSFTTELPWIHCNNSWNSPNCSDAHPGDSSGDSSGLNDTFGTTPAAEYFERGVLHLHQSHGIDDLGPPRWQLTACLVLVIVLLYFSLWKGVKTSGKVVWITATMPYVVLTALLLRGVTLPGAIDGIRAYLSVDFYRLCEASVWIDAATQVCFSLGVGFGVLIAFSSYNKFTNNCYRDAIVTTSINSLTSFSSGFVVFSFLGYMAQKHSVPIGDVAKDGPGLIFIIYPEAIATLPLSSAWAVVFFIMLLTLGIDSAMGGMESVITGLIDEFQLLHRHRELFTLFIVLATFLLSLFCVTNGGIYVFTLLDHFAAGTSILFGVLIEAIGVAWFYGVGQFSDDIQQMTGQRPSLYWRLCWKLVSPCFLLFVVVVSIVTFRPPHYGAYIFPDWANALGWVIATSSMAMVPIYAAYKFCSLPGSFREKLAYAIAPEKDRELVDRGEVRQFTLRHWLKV
T4 sequence (P31645 whole entry): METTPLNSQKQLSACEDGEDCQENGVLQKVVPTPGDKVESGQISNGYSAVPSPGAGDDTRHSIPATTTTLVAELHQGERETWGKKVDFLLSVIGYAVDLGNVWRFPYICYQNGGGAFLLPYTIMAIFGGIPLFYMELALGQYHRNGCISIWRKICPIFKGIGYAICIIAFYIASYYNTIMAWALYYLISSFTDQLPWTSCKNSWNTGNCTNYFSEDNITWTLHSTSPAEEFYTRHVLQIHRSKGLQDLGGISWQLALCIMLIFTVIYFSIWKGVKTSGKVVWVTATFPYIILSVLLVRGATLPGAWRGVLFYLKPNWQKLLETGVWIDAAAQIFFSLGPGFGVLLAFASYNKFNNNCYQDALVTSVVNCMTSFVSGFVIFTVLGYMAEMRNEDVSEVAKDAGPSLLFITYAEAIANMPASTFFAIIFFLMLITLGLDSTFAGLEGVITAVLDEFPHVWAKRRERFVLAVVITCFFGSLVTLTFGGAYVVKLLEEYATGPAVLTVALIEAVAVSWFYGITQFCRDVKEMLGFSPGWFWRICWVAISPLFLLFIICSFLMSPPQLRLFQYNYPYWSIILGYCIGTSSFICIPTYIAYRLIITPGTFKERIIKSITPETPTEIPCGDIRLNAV
Chain of M1 (P11229 whole entry): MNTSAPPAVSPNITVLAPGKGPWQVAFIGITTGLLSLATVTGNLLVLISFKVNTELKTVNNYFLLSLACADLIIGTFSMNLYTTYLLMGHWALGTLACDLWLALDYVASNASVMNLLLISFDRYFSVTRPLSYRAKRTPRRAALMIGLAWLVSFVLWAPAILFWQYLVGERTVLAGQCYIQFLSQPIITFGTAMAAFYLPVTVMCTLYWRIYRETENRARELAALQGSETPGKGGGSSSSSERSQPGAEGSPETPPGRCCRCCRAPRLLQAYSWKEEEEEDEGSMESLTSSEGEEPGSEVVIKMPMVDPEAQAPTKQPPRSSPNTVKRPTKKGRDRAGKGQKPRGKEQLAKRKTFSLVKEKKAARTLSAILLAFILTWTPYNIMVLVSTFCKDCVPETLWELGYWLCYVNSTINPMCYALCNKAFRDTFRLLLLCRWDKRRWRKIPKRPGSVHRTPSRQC
Chain of M5 (P08912 whole entry): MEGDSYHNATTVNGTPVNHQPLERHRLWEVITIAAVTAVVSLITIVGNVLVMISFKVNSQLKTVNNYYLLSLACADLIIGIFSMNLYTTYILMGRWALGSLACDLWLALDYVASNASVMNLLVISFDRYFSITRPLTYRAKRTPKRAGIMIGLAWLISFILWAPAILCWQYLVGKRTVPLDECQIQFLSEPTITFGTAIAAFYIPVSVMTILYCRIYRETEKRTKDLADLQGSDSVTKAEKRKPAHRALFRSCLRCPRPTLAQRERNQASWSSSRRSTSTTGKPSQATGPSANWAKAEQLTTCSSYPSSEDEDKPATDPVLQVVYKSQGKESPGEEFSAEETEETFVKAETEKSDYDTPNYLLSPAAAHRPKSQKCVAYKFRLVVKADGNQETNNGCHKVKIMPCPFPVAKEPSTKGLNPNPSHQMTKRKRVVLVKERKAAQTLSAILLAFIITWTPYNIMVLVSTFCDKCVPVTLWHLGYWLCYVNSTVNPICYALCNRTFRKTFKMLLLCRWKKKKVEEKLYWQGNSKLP
Chain of M3 (P20309 whole entry): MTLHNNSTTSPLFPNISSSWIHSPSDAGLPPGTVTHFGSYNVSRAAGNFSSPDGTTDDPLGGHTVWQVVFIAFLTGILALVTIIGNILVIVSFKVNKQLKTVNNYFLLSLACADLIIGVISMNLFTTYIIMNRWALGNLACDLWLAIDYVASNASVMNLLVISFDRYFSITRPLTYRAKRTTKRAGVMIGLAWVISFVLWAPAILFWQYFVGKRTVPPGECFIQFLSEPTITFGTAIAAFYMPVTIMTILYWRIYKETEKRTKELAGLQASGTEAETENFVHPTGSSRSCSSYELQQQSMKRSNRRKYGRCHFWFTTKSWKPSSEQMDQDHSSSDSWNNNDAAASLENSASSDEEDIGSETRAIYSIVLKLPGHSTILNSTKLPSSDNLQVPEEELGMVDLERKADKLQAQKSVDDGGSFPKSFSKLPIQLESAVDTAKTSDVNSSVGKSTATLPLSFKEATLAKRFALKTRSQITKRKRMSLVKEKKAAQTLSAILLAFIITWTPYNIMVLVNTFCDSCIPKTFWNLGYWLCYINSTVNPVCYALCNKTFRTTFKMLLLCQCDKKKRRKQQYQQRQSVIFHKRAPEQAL
T5 sequence (P23975 whole entry): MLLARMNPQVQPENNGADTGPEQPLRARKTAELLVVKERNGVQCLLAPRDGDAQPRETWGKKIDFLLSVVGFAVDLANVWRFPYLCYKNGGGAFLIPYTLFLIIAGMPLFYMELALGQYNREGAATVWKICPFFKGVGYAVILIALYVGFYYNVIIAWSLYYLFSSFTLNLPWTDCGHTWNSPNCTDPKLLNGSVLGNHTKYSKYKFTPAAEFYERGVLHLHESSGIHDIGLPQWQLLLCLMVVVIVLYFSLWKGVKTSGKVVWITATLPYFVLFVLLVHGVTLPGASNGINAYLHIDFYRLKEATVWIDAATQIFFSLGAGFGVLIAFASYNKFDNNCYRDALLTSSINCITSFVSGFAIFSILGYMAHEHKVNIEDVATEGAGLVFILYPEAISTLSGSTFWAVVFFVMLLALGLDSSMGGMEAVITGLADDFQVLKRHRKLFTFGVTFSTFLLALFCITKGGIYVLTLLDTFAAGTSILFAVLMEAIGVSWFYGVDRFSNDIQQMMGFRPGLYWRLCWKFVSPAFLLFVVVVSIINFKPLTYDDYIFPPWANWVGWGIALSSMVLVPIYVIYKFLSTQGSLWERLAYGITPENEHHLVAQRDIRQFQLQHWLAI
Chain of M2 (P08172 whole entry): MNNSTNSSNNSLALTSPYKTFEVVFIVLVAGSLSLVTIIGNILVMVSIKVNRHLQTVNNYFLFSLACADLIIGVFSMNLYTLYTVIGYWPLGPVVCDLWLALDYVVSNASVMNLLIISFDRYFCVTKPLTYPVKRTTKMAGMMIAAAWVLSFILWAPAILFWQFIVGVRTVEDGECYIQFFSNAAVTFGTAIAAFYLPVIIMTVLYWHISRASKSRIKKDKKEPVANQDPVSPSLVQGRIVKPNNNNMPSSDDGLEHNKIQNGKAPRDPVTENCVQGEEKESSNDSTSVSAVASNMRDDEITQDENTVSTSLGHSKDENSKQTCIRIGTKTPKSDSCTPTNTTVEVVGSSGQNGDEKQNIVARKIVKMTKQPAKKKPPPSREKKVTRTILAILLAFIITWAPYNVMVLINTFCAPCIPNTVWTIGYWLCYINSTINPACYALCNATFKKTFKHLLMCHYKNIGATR
Chain of KOR (P41145 whole entry): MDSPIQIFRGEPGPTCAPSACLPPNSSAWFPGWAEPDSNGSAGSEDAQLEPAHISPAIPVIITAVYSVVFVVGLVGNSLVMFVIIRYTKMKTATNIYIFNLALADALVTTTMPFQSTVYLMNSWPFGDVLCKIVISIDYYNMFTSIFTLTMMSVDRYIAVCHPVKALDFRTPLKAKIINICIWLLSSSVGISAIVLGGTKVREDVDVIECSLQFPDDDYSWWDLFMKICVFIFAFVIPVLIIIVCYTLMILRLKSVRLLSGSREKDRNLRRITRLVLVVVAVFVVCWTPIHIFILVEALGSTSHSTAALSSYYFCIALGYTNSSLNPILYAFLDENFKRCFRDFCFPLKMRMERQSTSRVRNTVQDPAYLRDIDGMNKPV
Chain of H3 (Q9Y5N1 whole entry): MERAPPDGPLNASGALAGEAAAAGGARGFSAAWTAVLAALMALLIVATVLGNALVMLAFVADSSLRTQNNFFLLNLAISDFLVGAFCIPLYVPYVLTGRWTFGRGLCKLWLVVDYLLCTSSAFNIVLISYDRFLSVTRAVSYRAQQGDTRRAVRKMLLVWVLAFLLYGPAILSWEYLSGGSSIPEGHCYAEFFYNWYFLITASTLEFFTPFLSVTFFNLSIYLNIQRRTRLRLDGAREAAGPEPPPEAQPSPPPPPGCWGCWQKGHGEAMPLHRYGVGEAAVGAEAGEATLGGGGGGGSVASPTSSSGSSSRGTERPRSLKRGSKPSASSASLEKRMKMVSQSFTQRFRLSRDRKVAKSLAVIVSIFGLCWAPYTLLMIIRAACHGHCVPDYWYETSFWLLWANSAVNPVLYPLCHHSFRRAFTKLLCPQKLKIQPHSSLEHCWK

Row | Compound | IC50 (DAT [1]) | Hill slope DAT reuptake inhibition (DAT [1]) | Ki [3] | Ki (Sigma 2) | Ki (M5) | Ki (M2) | IC50 (Human SERT) | IC50 [4] | Ki (M3) | Ki (DAT [5]) | Ki (M1) | IC50 (NET [6]) | Hill slope NET reuptake inhibition (NET [6]) | other results
1 | Clc1ccccc1C(Cc1ccccc1)N1CCCCC1 (stereo not shown) [2-Cl-DPH, 2-Cl-diphenidine] | 10500 nM | 0.65 | 9.3 ± 1.3 nM | 474 nM | 291 nM | 910 nM | > 10000 nM | 14.6 ± 2.1 nM | 615 nM | 357 nM | 278 nM | 27100 nM | 1.02 | Ki (Alpha2C): 1820 nM; Ki (Alpha2A): 2690 nM; NMDAR affinity (NMDAR [2]): pM affinity; Ki (KOR): 642 nM; Ki (MOR): 2060 nM; Ki (M4): 828 nM; affinities at muscarinic sites relative to NMDAR (M1; less than for NMDAR): 30 fold
2 | COc1cccc(C(Cc2ccccc2)N2CCCCC2)c1 (stereo not shown) [3-MXP, 3-methoxy-diphenidine] | 587 nM | 0.92 | 19.3 ± 1.7 nM | 633 nM | 1120 nM | 2970 nM | > 10000 nM | 30.3 ± 2.6 nM | 2300 nM | 88 nM | 2400 nM | 2710 nM | 0.95 | Ki (H1): 2030 nM; Ki (KOR): 2260 nM; Ki (H3): 1470 nM; Ki (NET [7]): 325 nM
3 | COc1ccc(C(Cc2ccccc2)N2CCCCC2)cc1 (stereo not shown) [4-MXP, 4-methoxy-diphenidine] | 2230 nM | 0.96 | 461 ± 44.5 nM | 564 nM | 2760 nM | 1620 nM | 19000 nM | 724 ± 69.9 nM | 2400 nM | 157 nM | 2430 nM | 22500 nM | 1.75 | Ki (Alpha2C): 2510 nM; Ki (H1): 4530 nM; Ki (H3): 556 nM; Ki (NET [7]): 2700 nM; Hill slope SERT reuptake inhibition (Human SERT; HEK293 cells): 1.12; affinity at DAT relative to NMDAR (DAT [5]; higher at DAT): ~ 2.5 fold
4 | c1ccc(C[C@H](c2ccccc2)N2CCCCC2)cc1 [(R)-DPH] |  |  |  |  |  |  |  |  |  |  |  |  |  | Ki (NMDAR [8]): 5250 nM
5 | c1ccc(C[C@@H](c2ccccc2)N2CCCCC2)cc1 [(S-)-DPH] |  |  |  |  |  |  |  |  |  |  |  |  |  | Ki (NMDAR [8]): 120 nM
6 | NC(CCCP(=O)(O)O)C(=O)O [D-AP5, reference compound] |  |  |  |  |  |  |  |  |  |  |  |  |  | small persistent deflection remaining of the NMDAR-fEPSP (NMDA receptor): < 20%
7 | c1ccc(C2(N3CCCCC3)CCCCC2)cc1 [PCP, Phencyclidine] |  |  |  |  |  |  |  |  |  |  |  |  |  | potency to alter PPI relative to DPH (Sprague–Dawley rats [9]): 10 fold; [3H]MK-801 displacement affinity relative to DPH ([3]; lower affinity): 3 fold; IC50 [10]: 91 ± 1.3 nM; Ki ([10]; read-out: Ki ± SEM): 57.9 ± 0.8 nM; ED50 for disruption of PPI (Sprague–Dawley rats [11]): 3.15 µmol/kg
